Results reported in patent US20120082626A1, “USE OF R-BAMBUTEROL AS INHALED MEDICAMENT AND COMBINATION THERAPIES FOR TREATMENT OF RESPIRATORY DISORDERS” (priority 2009, published 2012).
Marks after values point to notes of the source that are not given here.

Assays:
[1] = test system: histamine evoked asthma in conscious guinea-pigs; assay: Histamine-evoked asthma in conscious guinea pigs after oral administration; format: in vivo, guinea pigs (Dunkin-Hartley strain); conditions: for Latency: no collapse over 360 sec recorded as 360
Experimental: (§1) Test methods: Guinea pigs (Dunkin-Hartley strain, 200±30 g) were fasted overnight but given water ad libidum. The animals were restrained individually in a glass chamber and exposed to aerosol histamine generated by a nebulizer from a 0.2% aqueous solution of histamine under constant pressure at dose of 0.5 ml/min for a period of 15 sec. The animal was removed from the chamber, and its behavior was monitored. Assign of collapse and the latency time from exposure to collapse were recorded. Only the animals with latency time less than 120 sec, as an indication of sensitive to histamine, were chosen for later experiments. The animals chosen were allowed to recover completely by resting for 24 hours before experiments. R-bambuterol and racemic bambuterol hydrochloride were dissolved in saline and nublized in a nebulizer.
Comparison of the anti-asthma effects of R-bambuterol (R-BM) and bambuterol (RS-BM) administered by oral and by inhalation in conscious guinea pigs. Test methods: same as Example 1.
Study of dose-response: Same as Example 1, except the following: four hours before the exposure to aerosol histamine, animals were randomized into groups (n=8, equal male and female), and given R-bambuterol hydrochloride or racemic bambuterol hydrochloride in doses of 1.0, 2.0, 4.0 and 8.0 mg/kg, and vehicle control, orally via a stomach tube.

[2] = test system: OVA evoked asthma in sensitized guinea-pigs; assay: Relief of antigen-evoked asthma by inhalation after challenge in OVA sensitized guinea-pigs; format: in vivo; conditions: nebulized drug inhaled after antigen challenge
Excerpt: In an embodiment of the invention, the ovalbumin (OVA) sensitized guinea-pigs were first challenged with nebulized antigen to evoke asthma, then the animals were allowed to inhale nebulized R-bambuterol or bambuterol. […] In a further embodiment of the invention, the sensitized guinea-pigs were first pretreated with nebulized R-bambuterol or bambuterol by inhalation. After three minutes, the same animals were challenged with nebulized antigen. […] The fast onset of action in the invention can also not be explained by Svenssion's in vitro metabolic study noted above that the dominate product is mono-carbamate bambuterol and litter terbutaline at initial phase., while the major amount of terbutaline will be formed at much later phase. (Svensson et al., 1988).

[3] = oral; cited from earlier work
[4] = test system: histamine evoked asthma in conscious guinea-pigs; assay: Time course of anti-asthma effects after oral administration or inhalation; format: in vivo; conditions: for No. of collapsed: n=8
Experimental: The time course of the anti-asthma effects of R-bambuterol (R-BM) and bambuterol (RS-BM) after administered by oral and by inhalation. Test Methods: same as example 1 except the following:
For orally administration, R-Bambuterol hydrochloride or racemic bambuterol hydrochloride at 4 and 8 mg/kg, and vehicle alone, were administered to the guinea pigs orally via a stomach tube. Exposure of treated animals to aerosol histamine (as above) was done at 1, 4 and 12 hours after R-bambuterol or bambuterol treatment. For each experimental group, there were a total of 8 animals with equal number in sex, and no repeated exposure was made for individual experimental animals.
For inhalation, R-Bambuterol hydrochloride or racemic bambuterol hydrochloride at 0.252 and 0.504 mg/kg, and vehicle alone, were nebulized and administered to the guinea pigs by inhalation. Exposure of drug treated animals to aerosol histamine (as above) was done at 1,4 and 12 hours after drug treatment. For each experimental group, there were a total of 8 animals with equal number in sex, and no repeated exposure was made for individual experimental animals.

[5] = test system: OVA evoked asthma in sensitized guinea pigs; assay: Airway resistance and dynamic pulmonary compliance after inhalation in OVA sensitized guinea pigs; format: in vivo; conditions: n=8
[6] = test system: OVA evoked asthma in sensitized guinea pigs; assay: Drug tolerance to R-bambuterol induced by pretreatment; format: in vivo; conditions: for Changes in Cdyn During asthma / Changes in Raw During asthma: OVA challenge, n=8
Experimental: Animal sensitization and experiment methods were similar as discribed above. Briefly, animals were divided into three groups. R-bambuterol (8 mg/kg) or S-bamburerol (8 mg/kg) or 0.9% NaCL (control) were given orally in equal volum to each group seperatedly once a day for 7 consecutive days in order to induce drug tolerances. The Protection effects of same dosage of R-bambuterol against asthma attack induced by OVA challenge were evaluated by the changes of Airway resistance (Raw) and dynamic pulmonary compliance (Cdyn).

[7] = test system: histamine evoked asthma in conscious guinea-pigs; assay: Protection against histamine-evoked asthma by inhaled drug in conscious guinea pigs; format: in vivo, guinea pigs (Dunkin-Hartley strain); conditions: for Latency: no collapse over 360 sec recorded as 360
Experimental: as §1
Study of dose-response: One hours before the exposure to aerosol histamine, animals were randomized into groups (n=8, equal sex), and Nublized R-bambuterol hydrochloride or bambuterol hydrochloride in doses of 63, 126, 252 and 504 μg/kg, and vehicle control were inhaled by the animals via a mouth and nasal mask. The numbers of collapsed animal as a result of asthmatic reaction to aerosol histamine were counted, and the latency times were recorded. Both of these parameters were used as quantitative measurements of the protective effects of the treatments on bronchospasm evoked by aerosol histamine.

[8] = oral, at maximum effective dose (R-BM 4.0, RS-BM 8.0 mg/Kg)
[9] = inhalation (R-BM 252 μg/kg, RS-BM 504 μg/kg), histamine 60 min after
[10] = inhalation (R-BM 252 μg/kg, RS-BM 504 μg/kg), histamine 240 min after
[11] = inhalation (R-BM 252 μg/kg, RS-BM 504 μg/kg), histamine 720 min after
[12] = oral (R-BM 4.0 mg/kg, RS-BM 8.0 mg/kg), histamine 60 min after
[13] = oral (R-BM 4.0 mg/kg, RS-BM 8.0 mg/kg), histamine 240 min after
[14] = oral (R-BM 4.0 mg/kg, RS-BM 8.0 mg/kg), histamine 720 min after
[15] = R-BM inhaled 504 μg/kg, OVA challenge
[16] = after R-BM inhaled 504 μg/kg, before OVA challenge
[17] = pretreated with the labelled substance 8 mg/kg orally once a day 7 days, then R-bambuterol
[18] = saline pretreated group, protection by R-bambuterol
[19] = inhale, at maximum effective dose (R-BM 0.252, RS-BM 0.505 mg/Kg)

Compound: CN(C)C(=O)Oc1cc(OC(=O)N(C)C)cc([C@@H](O)CNC(C)(C)C)c1 [R-bambuterol]
- maximum effective dose required by oral (none of the histamine challenged animals collapsed) ([1]; oral): 4 mg/kg
- Latency ([1]; oral 1.0 mg/Kg): 179 ± 151 s
- Latency ([1]; oral 2.0 mg/Kg): 295 ± 121 s
- (Collapsed)/No. in group ([1]; oral 4.0 mg/Kg, four hours before aerosol histamine, n=8): 0/8**^▴▴
- Latency ([1]; oral 4.0 mg/Kg): 360 ± 0 s
- Latency ([1]; oral 8.0 mg/Kg): 360 ± 0 s
- Animal collapsed (%) [1, 8]: 0%
- Animal collapsed (number/group) [1, 8]: 0/8
- maximum effective dose required by oral (none of the histamine challenged animals collapsed) ([1]; oral, listed as R-BM): Oral (4.0) mg/Kg
- relief of asthmatic symptoms after inhalation [2]: immediately relieved within matter of tenths of seconds to a couple of minutes
- time of maximum concentration (tmax) [3]: around one
- Latency [4, 9]: 360 ± 0 s
- No. of collapsed [4, 9]: 0/8
- Latency [4, 10]: 360 ± 0 s
- No. of collapsed [4, 10]: 0/8
- Latency [4, 11]: 330 ± 84 s
- No. of collapsed [4, 11]: 1/8
- maximum anti-asthmatic effects by inhalation faster than by oral administration ([4]; inhalation vs oral): 4 h
- Latency [4, 12]: 258 ± 141 s
- No. of collapsed [4, 12]: 3/8
- Latency [4, 13]: 360 ± 0 s
- No. of collapsed [4, 13]: 0/8
- Latency [4, 14]: 285 ± 129 s
- No. of collapsed [4, 14]: 2/8
- Cdyn (dynamic pulmonary compliance) [5, 15]: 0.62 ± 0.02
- Raw (airway resistance) [5, 15]: 11.51 ± 1.09
- Cdyn (dynamic pulmonary compliance) [5, 16]: 0.70 ± 0.03
- Raw (airway resistance) [5, 16]: 10.91 ± 0.41
- protection effects of R-bambuterol against asthmatic attack after pretreatment ([6]; group pretreated with the labelled substance): less than control but no significant differences
- Changes in Cdyn During asthma [6, 17]: −0.11 ± 0.08
- Changes in Raw During asthma [6, 17]: +0.13 ± 0.09
- protection against asthma attack in control group ([6]; saline pretreated control group): fully protect against asthma attack
- Changes in Cdyn During asthma [6, 18]: −0.08 ± 0.06^•
- Changes in Raw During asthma [6, 18]: +0.09 ± 0.03^•
- dosage required for maximum anti-asthmatic effects (complete protection against histamine) by inhalation ([7]; inhalation): 256 µg/kg
- maximum effective dose required by inhalation ([7]; inhale): Inhale (0.252) mg/Kg
- Animal collapsed (%) [7, 19]: 0%
- Animal collapsed (number/group) [7, 19]: 0/8
- Latency ([7]; inhaled 63 μg/Kg): 95 ± 108 s
- Latency ([7]; inhaled 126 μg/Kg): 243 ± 161 s
- Latency ([7]; inhaled 252 μg/Kg): 360 ± 0 s
- Latency ([7]; inhaled 504 μg/Kg): 360 ± 0 s
- potency relative to bambuterol ([7]; inhaled aerosols, histamine evoked asthma): about twice
- Oral:Inhale ratio of maximum effective dose ([7]; oral dose vs inhaled dose for maximum anti-asthmatic effect, listed as R-bamubuterol): 16
